Earlier results in article PMC7435928, “Preclinical Evaluation of NHS-Activated Gold Nanoparticles Functionalized with Bombesin or Neurotensin-Like Peptides for Targeting Colon and Prostate Tumours” (Molecules, 2020).

Target: bombesin BBRS1, BBRS2 and BBRS3 receptors
Set-up: method as in printed for the value
Conditions: target receptors BBRS1, BBRS2; not measured in this paper, ref not given; cited from earlier work

## COc1ccc(C2(CNC(=O)[C@](C)(Cc3c[nH]c4ccccc34)NC(=O)Nc3ccc([N+](=O)[O-])cc3)CCCCC2)nc1 [PD 176252]
  Kd: 1 nM
